Where “and” joins values, the source holds several entries; their conditions need not be identical. Identical values can stand only once.
System: 922993-354-T-J3-PDC complex spheroids, viability, % test/control
Experiment: Anticancer human tumor 922993-354-T-J3-PDC patient-derived endometrial carcinoma cell line growth inhibition [CLK]
Settings: for viability, T/C: stronger effect = lower value
In short: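 Patient-derived tumor cells grown as complex spheroids with HUVEC endothelial cells and mesenchymal stem cells, treated with drug combinations. Concentrations descend in half-log steps from near clinical Cmax, or from 10 microM if Cmax unknown.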

[1] = curve of first compound, second compound 0.0316 µM
[2] = curve of first compound, second compound 0.1 µM
[3] = curve of first compound, second compound 0.316 µM
[4] = curve of first compound, second compound 1 µM
[5] = curve of first compound, second compound 3.16 µM
[6] = curve of first compound, second compound 10 µM
[7] = second compound 0.0316 µM, first compound 0.0316 µM
[8] = second compound 0.0316 µM, first compound 0.1 µM
[9] = second compound 0.0316 µM, first compound 0.316 µM
[10] = second compound 0.0316 µM, first compound 1 µM
[11] = second compound 0.0316 µM, first compound 3.16 µM
[12] = second compound 0.0316 µM, first compound 10 µM
[13] = second compound 0.1 µM, first compound 0.0316 µM
[14] = second compound 0.1 µM, first compound 0.1 µM
[15] = second compound 0.1 µM, first compound 0.316 µM
[16] = second compound 0.1 µM, first compound 1 µM
[17] = second compound 0.1 µM, first compound 3.16 µM
[18] = second compound 0.1 µM, first compound 10 µM
[19] = second compound 0.316 µM, first compound 0.0316 µM
[20] = second compound 0.316 µM, first compound 0.1 µM
[21] = second compound 0.316 µM, first compound 0.316 µM
[22] = second compound 0.316 µM, first compound 1 µM
[23] = second compound 0.316 µM, first compound 3.16 µM
[24] = second compound 0.316 µM, first compound 10 µM
[25] = second compound 1 µM, first compound 0.0316 µM
[26] = second compound 1 µM, first compound 0.1 µM
[27] = second compound 1 µM, first compound 0.316 µM
[28] = second compound 1 µM, first compound 1 µM
[29] = second compound 1 µM, first compound 3.16 µM
[30] = second compound 1 µM, first compound 10 µM
[31] = second compound 3.16 µM, first compound 0.0316 µM
[32] = second compound 3.16 µM, first compound 0.1 µM
[33] = second compound 3.16 µM, first compound 0.316 µM
[34] = second compound 3.16 µM, first compound 1 µM
[35] = second compound 3.16 µM, first compound 3.16 µM
[36] = second compound 3.16 µM, first compound 10 µM
[37] = second compound 10 µM, first compound 0.0316 µM
[38] = second compound 10 µM, first compound 0.1 µM
[39] = second compound 10 µM, first compound 0.316 µM
[40] = second compound 10 µM, first compound 1 µM
[41] = second compound 10 µM, first compound 3.16 µM
[42] = second compound 10 µM, first compound 10 µM
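Also: spheroids exposed to the agents for 7 days before readout.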

CC1(C)CCC(CN2CCN(c3ccc(C(=O)NS(=O)(=O)c4ccc(NCC5CCOCC5)c([N+](=O)[O-])c4)c(Oc4cnc5[nH]ccc5c4)c3)CC2)=C(c2ccc(Cl)cc2)C1 + CN1CCN(c2cc(C(=O)Nc3cc4cc(-c5cnn(C)c5)ccc4cn3)ccn2)CC1 showed an IC50 [1] of 6610 nM, an IC50 [2] of 5420 nM and an IC50 [3] of under 31.6 nM. It also gave an IC50 [4] of under 31.6 nM, an IC50 [5] of under 31.6 nM and an IC50 [6] of under 31.6 nM. It also gave a viability, T/C [7] of 109%, a viability, T/C [8] of 109% and a viability, T/C [9] of 97%. For the same compound, the viability, T/C [10] was 105%, the viability, T/C [11] was 112% and the viability, T/C [12] was 18.2%. It also gave a viability, T/C [13] of 97.1%, a viability, T/C [14] of 90.4% and a viability, T/C [15] of 79.8%. It also gave a viability, T/C [16] of 97.7%, a viability, T/C [17] of 87.1% and a viability, T/C [18] of 7.76%. For the same compound, the viability, T/C [19] was 40%, the viability, T/C [20] was 38% and the viability, T/C [21] was 39.8%. For the same compound, the viability, T/C [22] was 32.5%, the viability, T/C [23] was 29.9% and the viability, T/C [24] was 1.44%. The viability, T/C [25] was 0.16%, the viability, T/C [26] was 0.69% and the viability, T/C [27] was 0.19%. For the same compound, the viability, T/C [28] was 0.86%, the viability, T/C [29] was 1.06% and the viability, T/C [30] was 0.1%. For the same compound, the viability, T/C [31] was 0.36%, the viability, T/C [32] was 0.14% and the viability, T/C [33] was 0.14%. It also gave a viability, T/C [34] of 0.11%, a viability, T/C [35] of 2.58% and a viability, T/C [36] of 1.27%. The viability, T/C [37] was 0.15%, the viability, T/C [38] was 0.14% and the viability, T/C [39] was 1.91%. The viability, T/C [40] was 0.13%, the viability, T/C [41] was 0.16% and the viability, T/C [42] was 2.48%.
With COc1c(OCCCN2CCOCC2)ccc2c3n(c(=NC(=O)c4cnc(N)nc4)nc12)CCN3 the viability, T/C (compound 0.00316 µM) was 109% and 111%, the viability, T/C (compound 0.01 µM) was 89.1% and 90.3% and the viability, T/C (compound 0.0316 µM) was 75.1% and 91.2%. For the same compound, the viability, T/C (compound 0.1 µM) was 54.6% and 68.8%, the viability, T/C (compound 0.316 µM) was 30.3% and 40.4% and the viability, T/C (compound 1 µM) was 9.62% and 15.9%. The IC50 (curve of compound) was 118 nM and 226 nM.
Work on Cn1ncnc1[C@H]1c2n[nH]c(=O)c3cc(F)cc(c23)N[C@@H]1c1ccc(F)cc1 + CNC(=O)c1ccc(Nc2nc(OC3CCCC3)c3c(-c4ccc5nc(C)oc5c4)c[nH]c3n2)c(OC)c1 yielded an IC50 [1] of over 100 nM, an IC50 [2] of over 100 nM and an IC50 [3] of over 100 nM. It also gave an IC50 [4] of under 0.316 nM, an IC50 [5] of under 0.316 nM and an IC50 [6] of under 0.316 nM. For the same compound, the viability, T/C (second compound 0.0316 µM, first compound 0.000316 µM) was 92%, the viability, T/C (second compound 0.0316 µM, first compound 0.001 µM) was 99.2% and the viability, T/C (second compound 0.0316 µM, first compound 0.00316 µM) was 88.9%. It also gave a viability, T/C (second compound 0.0316 µM, first compound 0.01 µM) of 104%, a viability, T/C [7] of 97.6% and a viability, T/C [8] of 84.6%. The viability, T/C (second compound 0.1 µM, first compound 0.000316 µM) was 109%, the viability, T/C (second compound 0.1 µM, first compound 0.001 µM) was 114% and the viability, T/C (second compound 0.1 µM, first compound 0.00316 µM) was 106%. It also gave a viability, T/C (second compound 0.1 µM, first compound 0.01 µM) of 104%, a viability, T/C [13] of 113% and a viability, T/C [14] of 94.4%. It also gave a viability, T/C (second compound 0.316 µM, first compound 0.000316 µM) of 77.3%, a viability, T/C (second compound 0.316 µM, first compound 0.001 µM) of 64.4% and a viability, T/C (second compound 0.316 µM, first compound 0.00316 µM) of 56.6%. It also gave a viability, T/C (second compound 0.316 µM, first compound 0.01 µM) of 73.2%, a viability, T/C [19] of 76.1% and a viability, T/C [20] of 57.2%. The viability, T/C (second compound 1 µM, first compound 0.000316 µM) was 36.9%, the viability, T/C (second compound 1 µM, first compound 0.001 µM) was 34% and the viability, T/C (second compound 1 µM, first compound 0.00316 µM) was 32.4%. The viability, T/C (second compound 1 µM, first compound 0.01 µM) was 33.9%, the viability, T/C [25] was 32.4% and the viability, T/C [26] was 27.1%. It also gave a viability, T/C (second compound 3.16 µM, first compound 0.000316 µM) of 28.9%, a viability, T/C (second compound 3.16 µM, first compound 0.001 µM) of 33.7% and a viability, T/C (second compound 3.16 µM, first compound 0.00316 µM) of 32.1%. For the same compound, the viability, T/C (second compound 3.16 µM, first compound 0.01 µM) was 30.8%, the viability, T/C [31] was 28% and the viability, T/C [32] was 21%. For the same compound, the viability, T/C (second compound 10 µM, first compound 0.000316 µM) was 28.8%, the viability, T/C (second compound 10 µM, first compound 0.001 µM) was 34.2% and the viability, T/C (second compound 10 µM, first compound 0.00316 µM) was 31.2%. It also gave a viability, T/C (second compound 10 µM, first compound 0.01 µM) of 28.8%, a viability, T/C [37] of 24.1% and a viability, T/C [38] of 20.8%.
C=CC(=O)N1CCN(c2nc(=O)n(-c3c(C)ccnc3C(C)C)c3nc(-c4c(O)cccc4F)c(F)cc23)C(C)C1 (stereo not given) + CNC(=O)c1ccc(Nc2nc(OC3CCCC3)c3c(-c4ccc5nc(C)oc5c4)c[nH]c3n2)c(OC)c1 showed an IC50 [1] of over 10000 nM, an IC50 [2] of over 10000 nM and an IC50 [3] of over 10000 nM. It also gave an IC50 [4] of under 31.6 nM, an IC50 [5] of under 31.6 nM and an IC50 [6] of under 31.6 nM. The viability, T/C [7] was 106%, the viability, T/C [8] was 105% and the viability, T/C [9] was 102%. For the same compound, the viability, T/C [10] was 103%, the viability, T/C [11] was 106% and the viability, T/C [12] was 78.6%. It also gave a viability, T/C [13] of 86.2%, a viability, T/C [14] of 104% and a viability, T/C [15] of 101%. It also gave a viability, T/C [16] of 103%, a viability, T/C [17] of 103% and a viability, T/C [18] of 94.5%. The viability, T/C [19] was 66.9%, the viability, T/C [20] was 69% and the viability, T/C [21] was 64%. The viability, T/C [22] was 61.1%, the viability, T/C [23] was 69.3% and the viability, T/C [24] was 47.5%. The viability, T/C [25] was 33.8%, the viability, T/C [26] was 32.8% and the viability, T/C [27] was 34.6%. For the same compound, the viability, T/C [28] was 36.2%, the viability, T/C [29] was 41.4% and the viability, T/C [30] was 44.8%. It also gave a viability, T/C [31] of 34.3%, a viability, T/C [32] of 31.2% and a viability, T/C [33] of 30.6%. It also gave a viability, T/C [34] of 33.3%, a viability, T/C [35] of 36.4% and a viability, T/C [36] of 38.1%. It also gave a viability, T/C [37] of 27.6%, a viability, T/C [38] of 28.6% and a viability, T/C [39] of 31.9%. The viability, T/C [40] was 33%, the viability, T/C [41] was 34.1% and the viability, T/C [42] was 37.3%.
CC(CO)NC(=O)c1cc(-c2ccc(Cl)cc2)nn(-c2cnn(C)c2)c1=O (stereo not given) was tested, and the viability, T/C (compound 0.0316 µM) was 107% and 97.1%, the viability, T/C (compound 0.1 µM) was 106% and 87.2% and the viability, T/C (compound 0.316 µM) was 98% and 86%. The viability, T/C (compound 1 µM) was 97.1% and 81.7%, the viability, T/C (compound 3.16 µM) was 102% and 95.1% and the viability, T/C (compound 10 µM) was 74.8% and 64.1%. The IC50 (curve of compound) was over 10000 nM.
